# Source: US9725445B2, “Cycloalkyl nitrile pyrazolo pyridones as Janus kinase inhibitors” (Merck Sharp & Dohme Corp., priority 2013, dated 2017)
# Target: JAK1 (Homo sapiens (Human), UniProt P23458)
# Experiment: Jak biochemical HTRF assay, JAK1
# Details: HTRF biochemical assay, recombinant GST-tagged catalytic domain; read-out: JAK1 IC50
# Procedure: (§1) Jak Biochemical HTRF Assay Protocol
# (§2) The ability of compounds to inhibit the activity of JAK1, JAK2, JAK3, and Tyk2 was measured using a recombinant purified GST-tagged catalytic domain for each enzyme (Invitrogen JAK1 #M4290, JAK2 #M4290, JAK3 #M4290, Tyk2 #M4290) in an HTRF format biochemical assay. […] The basic assay protocol is as follows: First, 250 nL of diluted compounds in DMSO were dispensed into the wells of a dry 384-well Black plate (Greiner #781076) using a Labcyte Echo 555 acoustic dispenser. Subsequent reagent additions employed an Agilent Bravo. […] After equilibration, 2 μL of 10×ATP in 1× assay buffer was added to initiate the kinase reaction and the plates were shaken and then incubated at room temperature for 120 minutes. […] Plates were shaken and centrifuged and then incubated 60 minutes at room temperature and then read on a Perkin Elmer Envision (λex=337 nm, λem=665 and 615 nm, TRF delay time=20 μs). HTRF signal=10,000*665 nm reading/615 nm reading. After normalization to untreated controls, the percent inhibition of the HTRF signal at each compound concentration was calculated. The plot of percent inhibition versus the log of compound concentration was fit with a 4-parameter dose response equation to calculate IC50 values.
# (§3) Final Reaction Conditions were:
# (§4) Examples of the instant invention were evaluated in JAK1 and JAK2 in vitro binding assays.
# JAK1, sequence (P23458 875-1153): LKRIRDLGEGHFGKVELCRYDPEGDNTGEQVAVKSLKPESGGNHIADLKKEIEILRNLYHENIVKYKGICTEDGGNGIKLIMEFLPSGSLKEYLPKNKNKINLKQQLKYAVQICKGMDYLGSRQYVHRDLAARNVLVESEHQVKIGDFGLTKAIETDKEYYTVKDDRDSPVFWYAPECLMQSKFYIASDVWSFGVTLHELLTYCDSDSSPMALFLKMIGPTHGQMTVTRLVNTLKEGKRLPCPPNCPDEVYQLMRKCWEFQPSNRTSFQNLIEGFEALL
row,IC50 [nM],SMILES
1,0.18,"N#C[C@H]1CCCC[C@@H]1n1nc(Nc2ccc(-c3ccon3)cc2)c2c(=O)[nH]ccc21 [Example 15-4, (1S,2S)-2-{3-[(4-isoxazol-3-ylphenyl)amino]-4-oxo-4,5-dihydro-1H-pyrazolo[4,3-c]pyridin-1-yl}cyclohexanecarbonitrile]"
2,0.14,"N#C[C@H]1CCCC[C@@H]1n1nc(Nc2ccc(C3(C(F)(F)F)CCCN3)cc2)c2c(=O)[nH]ccc21 (single isomer, unassigned) [Example 15-61, (1S,2S)-2-[4-oxo-3-({4-[(2R or 2S)-2-(trifluoromethyl)pyrrolidin-2-yl]phenyl}amino)-4,5-dihydro-1H-pyrazolo[4,3-c]pyridin-1-yl]cyclohexanecarbonitrile]"
3,0.076,"COCC(C)(C)CN1Cc2cc(Nc3nn([C@@H]4CCCCC[C@H]4C#N)c4cc[nH]c(=O)c34)ccc2S1(=O)=O (single isomer, unassigned) [Example 15-46, (1R,2R or 1S,2S)-2-(3-{[2-(3-methoxy-2,2-dimethylpropyl)-1,1-dioxido-2,3-dihydro-1,2-benzisothiazol-5-yl]amino}-4-oxo-4,5-dihydro-1H-pyrazolo[4,3-c]pyridin-1-yl)cycloheptanecarbonitrile]"
4,0.095,"N#C[C@H]1CCCC[C@@H]1n1nc(Nc2ccc([C@]3(O)CC[C@@H](C(=O)O)CC3)cc2)c2c(=O)[nH]ccc21 (racemic) [Example 17-1, (1R,4S and 1S,4R)-4-(4-(1-((1S,2S)-2-Cyanocyclohexyl)-4-oxo-4,5-dihydro-1H-pyrazolo[4,3-c]pyridin-3-ylamino)phenyl)-4-hydroxycyclohexanecarboxylic acid]"
5,5.1,"COCC(C)(C)CN1Cc2cc(Nc3nn([C@H]4CCCCC[C@@H]4C#N)c4cc[nH]c(=O)c34)ccc2S1(=O)=O (single isomer, unassigned) [Example 15-49, (1S,2S or 1R,2R)-2-(3-{[2-(3-methoxy-2,2-dimethylpropyl)-1,1-dioxido-2,3-dihydro-1,2-benzisothiazol-5-yl]amino}-4-oxo-4,5-dihydro-1H-pyrazolo[4,3-c]pyridin-1-yl)cycloheptanecarbonitrile]"

# Further lines, the molecule ahead of its results:
row,SMILES,IC50 [nM]
1,"CC(C)(C)N1Cc2cc(Nc3nn([C@@H]4CCCCC[C@@H]4C#N)c4cc[nH]c(=O)c34)ccc2S1(=O)=O (single isomer, unassigned) [Example 3-179, (1S,2R or 1R,2S)-2-{3-[(2-tert-butyl-1,1-dioxido-2,3-dihydro-1,2-benzisothiazol-5-yl)amino]-4-oxo-4,5-dihydro-1H-pyrazolo[4,3-c]pyridin-1-yl}cycloheptanecarbonitrile]",0.46
2,"N#C[C@@H]1CCCC[C@H]1n1nc(Nc2cccc(CNC(=O)c3cnco3)c2)c2c(=O)[nH]ccc21 [Example 3-13, N-[3-({1-[(1R,2R)-2-cyanocyclohexyl]-4-oxo-4,5-dihydro-1H-pyrazolo[4,3-c]pyridin-3-yl}amino)benzyl]-1,3-oxazole-5-carboxamide]",14
3,"C[C@H](N[C@@H]1CC[C@@H](n2nc(Nc3ccc(C(F)(F)F)cc3)c3c(=O)[nH]ccc32)[C@H](C#N)C1)C1CC1 [Example 5-14, (1R,2R,5R)-5-(((S)-1-cyclopropylethyl)amino)-2-(4-oxo-3-((4-(trifluoromethyl)phenyl)amino)-4,5-dihydro-1H-pyrazolo[4,3-c]pyridin-1-yl)cyclohexanecarbonitrile]",9.4
4,"N#C[C@H]1CCC[C@@H]1n1nc(Nc2ccc(S(N)(=O)=O)cc2)c2c(=O)[nH]ccc21 [Example 3-99, 4-({1-[(1S,2S)-2-cyanocyclopentyl]-4-oxo-4,5-dihydro-1H-pyrazolo[4,3-c]pyridin-3-yl}amino)benzenesulfonamide]",0.09
5,"N#C[C@H]1C[C@@H](N2CC(O)C2)CC[C@@H]1n1nc(Nc2ccc(Cl)cc2)c2c(=O)[nH]ccc21 [Example 5-20, (1S,2S,5S)-2-(3-((4-chlorophenyl)amino)-4-oxo-4,5-dihydro-1H-pyrazolo[4,3-c]pyridin-1-yl)-5-(3-hydroxyazetidin-1-yl)cyclohexanecarbonitrile]",0.14
6,"CN(C)C(c1ccc(Nc2nn([C@H]3CCCC[C@@H]3C#N)c3cc[nH]c(=O)c23)cc1)C(F)(F)F (single isomer, unassigned) [Example 9-3, (1S,2S)-2-(3-(4-((S or R)-1-(Dimethylamino)-2,2,2-trifluoroethyl)phenylamino)-4-oxo-4,5-dihydropyrazolo[4,3-c]pyridin-1-yl)cyclohexanecarbonitrile]",0.16
7,"N#C[C@H]1C[C@H](N2CC(O)C2)CC[C@@H]1n1nc(Nc2ccc(Cl)cc2)c2c(=O)[nH]ccc21 [Example 5-19, (1S,2S,5R)-2-(3-((4-chlorophenyl)amino)-4-oxo-4,5-dihydro-1H-pyrazolo[4,3-c]pyridin-1-yl)-5-(3-hydroxyazetidin-1-yl)cyclohexanecarbonitrile]",0.11
8,"CC1(C)C(O)c2cc(Nc3nn([C@H]4CCCC[C@@H]4C#N)c4cc[nH]c(=O)c34)ccc2S1(=O)=O (single isomer, unassigned) [Example 3-172, (1S,2S)-2-(3-{[(3S or 3R)-3-hydroxy-2,2-dimethyl-1,1-dioxido-2,3-dihydro-1-benzothiophen-5-yl]amino}-4-oxo-4,5-dihydro-1H-pyrazolo[4,3-c]pyridin-1-yl)cyclohexanecarbonitrile]",0.39
9,"N#C[C@H]1CCCC[C@@H]1n1nc(Nc2ccc3c(c2)CC2(CC2)C3(O)C(F)(F)F)c2c(=O)[nH]ccc21 (single isomer, unassigned) [Example 3-123, (1S,2S)-2-(3-(((R or S)-1′-hydroxy-1′-(trifluoromethyl)-1′,3′-dihydrospiro[cyclopropane-1,2′-inden]-5′-yl)amino)-4-oxo-4,5-dihydro-1H-pyrazolo[4,3-c]pyridin-1-yl)cyclohexanecarbonitrile]",0.18
10,"CC1c2cc(Nc3nn([C@H]4CCCC[C@@H]4C#N)c4cc[nH]c(=O)c34)ccc2S(=O)(=O)N1CC(F)(F)F (single isomer, unassigned) [Example 3-128, (1S,2S)-2-(3-(((R or S)-3-methyl-1,1-dioxido-2-(2,2,2-trifluoroethyl)-2,3-dihydrobenzo[d]isothiazol-5-yl)amino)-4-oxo-4,5-dihydro-1H-pyrazolo[4,3-c]pyridin-1-yl)cyclohexanecarbonitrile]",0.095
11,"CN(C)S(=O)(=O)c1ccc(Nc2nn([C@H]3CCCC[C@@H]3C#N)c3cc[nH]c(=O)c23)cc1CN [Example 8-1, 2-(Aminomethyl)-4-((1-((1S,2S)-2-cyanocyclohexyl)-4-oxo-4,5-dihydro-1H-pyrazolo[4,3-c]pyridin-3-yl)amino)-N,N-dimethylbenzenesulfonamide]",0.78
12,"CS(=O)(=O)c1ccc(Nc2nn([C@H]3CCC[C@@H]3C#N)c3cc[nH]c(=O)c23)cc1 [Example 3-94, (1S,2S)-2-(3-{[4-(methylsulfonyl)phenyl]amino}-4-oxo-4,5-dihydro-1H-pyrazolo[4,3-c]pyridin-1-yl)cyclopentanecarbonitrile]",0.12
13,"CC(C)(C)N1Cc2cc(Nc3nn([C@@H]4CCCCC[C@H]4C#N)c4cc[nH]c(=O)c34)ccc2S1(=O)=O (single isomer, unassigned) [Example 3-177, (1R,2R or 1S,2S)-2-{3-[(2-tert-butyl-1,1-dioxido-2,3-dihydro-1,2-benzisothiazol-5-yl)amino]-4-oxo-4,5-dihydro-1H-pyrazolo[4,3-c]pyridin-1-yl}cycloheptanecarbonitrile]",0.046

# Target: JAK2 (Homo sapiens (Human), UniProt O60674)
# Sequence (O60674 849-1124): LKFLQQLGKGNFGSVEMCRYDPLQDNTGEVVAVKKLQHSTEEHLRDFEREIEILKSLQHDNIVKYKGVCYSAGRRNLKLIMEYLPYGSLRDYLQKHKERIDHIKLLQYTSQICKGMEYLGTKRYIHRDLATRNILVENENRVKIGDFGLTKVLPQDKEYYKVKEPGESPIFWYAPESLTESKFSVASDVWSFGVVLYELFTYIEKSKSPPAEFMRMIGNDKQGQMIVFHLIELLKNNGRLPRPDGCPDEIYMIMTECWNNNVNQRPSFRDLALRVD
# Experiment: Jak biochemical HTRF assay, JAK2
# Details: HTRF biochemical assay, recombinant GST-tagged catalytic domain; read-out: JAK2 IC50
# Procedure: as §1, §2, §3, §4
row,IC50 [nM],SMILES
1,14,"N#C[C@H]1CCCCC[C@@H]1n1nc(Nc2ccc3c(c2)CN(C2CCCC2)C3=O)c2c(=O)[nH]ccc21 (single isomer, unassigned) [Example 15-50, (1S,2S or 1R,2R)-2-{3-[(2-cyclopentyl-1-oxo-2,3-dihydro-1H-isoindol-5-yl)amino]-4-oxo-4,5-dihydro-1H-pyrazolo[4,3-c]pyridin-1-yl}cycloheptanecarbonitrile]"
2,0.35,"CC(C)(C)S(=O)(=O)c1ccc(Nc2nn([C@H]3CC(F)(F)C[C@@H]3C#N)c3cc[nH]c(=O)c23)cc1 (single isomer, unassigned) [Example 22-4, (1S,2S or 1R,2R)-2-(3-{[4-(tert-butylsulfonyl)phenyl]amino}-4-oxo-4,5-dihydro-1H-pyrazolo[4,3-c]pyridin-1-yl)-4,4-difluorocyclopentanecarbonitrile]"

# Continued, molecule first:
row,SMILES,IC50 [nM]
1,"CC(C)S(=N)(=O)c1ccc(Nc2nn(C3CCC[C@@H]3C#N)c3cc[nH]c(=O)c23)cc1 (single isomer, unassigned) [Example 3-108, (1S,2S)-2-[3-({4-[(S or R)-S-(1-methylethyl)sulfonimidoyl]phenyl}amino)-4-oxo-4,5-dihydro-yl]cyclopentanecarbonitrile]",0.5
2,"N#C[C@H]1C[C@H](N2CCC2)CC[C@@H]1n1nc(Nc2ccc(Cl)cc2)c2c(=O)[nH]ccc21 [Example 5-17, (1S,2S,5R)-5-(azetidin-1-yl)-2-(3-((4-chlorophenyl)amino)-4-oxo-4,5-dihydro-1H-pyrazolo[4,3-c]pyridin-1-yl)cyclohexanecarbonitrile]",33
